Test results reported in patent US12583884B2, “3beta-(benzyloxy)-17alpha-methyl-pregn-5-en-20-one for use in the treatment of cognitive disorders” (AELIS FARMA, priority 2018, dated 2026).

How the values were obtained:
[1] = Depressive-like behaviors in the sucrose preference test; format: in vivo, mouse
Description: Sucrose preference was tested in the home cages of the mice. A sucrose solution containing 2% of sucrose (D(+) saccharose) in tap water was poured in plastic graduated bottles (volume in each bottle, 45 ml). Identical bottles were filled with tap water. All the mice were first habituated to the bottles and to the sucrose solution. One bottle containing water and one bottle containing sucrose were placed in the hopper of each home cage. […] The mice had access to the solutions from the beginning of the dark phase, at the daily peak of food and water consumption (from 7 pm to 8.30 am). The sucrose preference test was performed seven days later. Water and sucrose solutions were presented as described for habituation except that mice had access to the solutions from 12 pm to 10 pm. At each time point, the bottles were weighed, 1 g corresponding to 1 ml. The intake volume was calculated by subtracting the initial bottle weight to the final bottle weight.
15 or 30 mg/kg or of vehicle (corn oil; 5 ml/kg) was studied in the sucrose preference test in 2-month-old male C57B1/6J mice (n=7-8 per group). Rimonabant was dissolved in a vehicle containing dimethylsulfoxide (DMSO, 2%), Tween80 (2%) in injectable NaCl 0.9%. Within the same study, the effect of repeated intraperitoneal injections of rimonabant at 10 mg/kg or of vehicle alone (10 ml/kg) was studied in the sucrose preference test in 2-month-old male C57B1/6J mice (n=8 per group).

[2] = test system: primary culture of rat hepatocytes; experiment: Hepatotoxicity in primary culture of hepatocytes; format: cell-based
Description: (§1) The percentage of cytolysed hepatocytes over time was determined by time lapse imaging with a fluorescent cytolysis marker. The number of bile canaliculi after 48 hours of treatment was determined using a fluorescent bile salt analog.
(§2) Primary rat hepatocytes from 10-12 weeks old Wistar rats were isolated using a two-step collagenase perfusion method. After 24 hours, cells were covered with a layer of Matrigel to perform a sandwich configuration culture. […] Cells were then stained using a fluorescent bile salt analog to measure the bile canaliculi network state and the Bsep pump activity. Acetaminophen (30 mM) and Cyclosporin A (1 μM) were added as positive controls of hepatotoxicity and biliary canaliculi loss, respectively.

[3] = Body weight of lean mice, repeated administrations
Description: Mice were weighed prior to drug administration every day at the first week of treatment and then four days per week.

[4] = test system: primary culture of rat cortical neurons; experiment: Neurotoxicity in primary culture of cortical neurons; format: cell-based; details: from 30 μM
Description: Cells were then followed by time-lapse imaging during 72 hours. The cells were then permeabilized. This procedure allowed to express the cytolysis over time as a percentage of the total number of cells per well.

[5] = Food intake of standard chow in lean mice; details: acute 10 mg/kg ip; first 3 hours after light-off; male C57BL/6J
Description: Spontaneous intake of standard chow in mice was evaluated during the dark phase of the light-dark cycle. The amount of food eaten was measured at light-off, 3 hours and 13 hours after light-off.

[6] = Beyer et al., 2010; Patel and Hillard, 2006; cited from earlier work
HeLa cells = experiment: Genotoxicity: Histone H2AX phosphorylation; details: 100 μM; 24 hours
Description: This study aimed at measuring Histone H2AX phosphorylation (γH2AX), which is the cellular response to DNA damage resulting in double-stranded DNA breaks. […] Etoposide at 3 μM was added as positive control of genotoxic effects. An immunofluorescence was performed on treated cells with a specific antibody against the phosphorylated histone gH2AX. Nuclei were stained with a fluorescent DNA intercaling agent. The stained cells were imaged and analyzed on the BD Pathway 855 imager®.

[7] = test system: primary culture of rat hepatocytes; experiment: Biliary function: bile canaliculi in primary hepatocytes
Description: as §1, §2

[8] = therapeutic dose for the treatment of obesity; Zavatti et al., 2011; EPAR; cited from earlier work
[9] = Anxiety-like behaviors in the elevated plus maze; format: in vivo, mouse
Excerpt: The EPM apparatus was made of grey polyvinyl chloride and consisted of four elevated arms. The arms (height, 60 cm; length, 37 cm; width, 6 cm; each) were arranged in a cross-like disposition, with two opposite arms being enclosed by walls and the two other arms being open. A video camera placed on the top of the maze and connected to a tracking system allowed the automatic scoring of the locomotion of the mice in the maze. The light intensity of the maze was set at 45 lux in the open arms. One mouse was placed in the center of the EPM and was then free to explore the entire maze for 5 minutes. The time spent and the number of entries into the open arms and closed arms were measured. A decrease in the percentages of visits and/or of the time spent in open arms reflects an increase in anxiety levels.
Rimonabant was dissolved in a vehicle containing DMSO, (2%), Tween80 (2%) in injectable NaCl 0.9%. Within the same study, the effect of intraperitoneal injection of rimonabant at 10 mg/kg or of vehicle alone (10 ml/kg) was studied in the EPM in 2-month-old male C57B1/6J mice (n=10 per group). The EPM test was performed 30 minutes after rimonabant injection.

[10] = reference ID100 for rimonabant effects = 10 mg/kg

- Sucrose consumption ([1]; 10 mg/kg ip once a day, 28 days): reduced by half sucrose consumption
- ID100: increase in depression-related behaviors ([1]; male mice): 10 mg/kg
- Effect: increase in depression-related behaviors (repeated administration) ([1]; male mice, rimonabant 10 mg/kg): Yes
- N fold ID100: increase in depression-related behaviors [1, 10]: 1
- Food intake [5]: significantly decreased food intake
- Effect on bile canaliculi ([7]; from 10 μM): suppressed bile canaliculi
- Concentration decreasing the number of canaliculi ([7]; tested 0.1 to 100 μM, 48 hours): ≥ 1 µM
- ID100: increase in anxiety-like behaviors ([9]; male mice): 10 mg/kg
- Effect: increase in anxiety-like behaviors (acute administration) ([9]; male mice, rimonabant 10 mg/kg): Yes
- N fold ID100: increase in anxiety-like behaviors [9, 10]: 1
SMILES: Cc1c(C(=O)NN2CCCCC2)nn(-c2ccc(Cl)cc2Cl)c1-c1ccc(Cl)cc1 [rimonabant]
- Hepatocyte death ([2]; from 10 μM): 100%
- Concentration increasing hepatocyte cell death ([2]; tested 0.1 to 100 μM, 48 hours): ≥ 3 µM
- Body weight ([3]; 10 mg/kg ip once a day, 40 days): decreased body weight
- ID100: inhibition of food-intake and body weight ([3]; male mice): 10 mg/kg
- Effect: inhibition of food-intake and body weight (repeated administration) ([3]; male mice, rimonabant 10 mg/kg): Yes
- N fold ID100: inhibition of food-intake and body weight [3, 10]: 1
- Neural cell death [4]: 80%
- Doses with similar effects (anhedonia, anxiety-like behaviors) in rodents [6]: ≥ 1 mg/kg
- Genotoxicity (DNA damage) (HeLa cells): induced DNA damage
- Doses inducing scratching, hyperactivity followed by sedation and convulsions [8]: 6 times the therapeutic dose
- Time spent and number of visits in the open arms ([9]; acute 10 mg/kg ip, 30 minutes after injection): markedly reduced the time spent and the number of visits in the open arms
